What was measured:
hKv3.1 = biological target: T1, hKv3.1 (Homo sapiens, UniProt P48547); assay: Automated patch clamp (Patchliner) whole-cell electrophysiology, Kv3.1; format: cell-based; conditions: 10 μM compound, CHO-K1 cells stably expressing hKv3.1; for Kv3.1 Activity at 10 μM Potentiation (%): % potentiation of peak current at −10 mV voltage step vs vehicle; for Kv3.1 Activity at 10 μM Voltage Shift (mV): voltage shift of the IV curve at V1/2
T1 construct: expressed in transfected cells
T1 sequence (P48547 1-511): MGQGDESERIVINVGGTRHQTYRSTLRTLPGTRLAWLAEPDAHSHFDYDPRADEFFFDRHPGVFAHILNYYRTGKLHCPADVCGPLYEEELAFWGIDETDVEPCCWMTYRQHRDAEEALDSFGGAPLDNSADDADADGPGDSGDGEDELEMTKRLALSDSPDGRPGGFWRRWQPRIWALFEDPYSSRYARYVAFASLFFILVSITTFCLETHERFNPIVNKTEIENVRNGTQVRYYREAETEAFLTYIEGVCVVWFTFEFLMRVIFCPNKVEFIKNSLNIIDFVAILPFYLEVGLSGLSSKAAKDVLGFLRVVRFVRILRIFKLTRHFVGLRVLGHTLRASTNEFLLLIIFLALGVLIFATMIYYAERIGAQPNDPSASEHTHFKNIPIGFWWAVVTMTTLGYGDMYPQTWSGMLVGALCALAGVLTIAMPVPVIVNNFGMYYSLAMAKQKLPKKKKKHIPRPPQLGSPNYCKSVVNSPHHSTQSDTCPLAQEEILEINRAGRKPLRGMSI
Experimental: (§1) hKv3.1, hKv3.2, hKv3.3, and hKv3.4 were stably expressed in CHO-K1 (Chinese hamster ovary) cells and kept under constant antibiotic selection. For in vitro assays, cells were maintained in appropriate growth medium at 37° C. and 5% CO2 in a humidified incubator.
(§2) hKv3.X expressing cells were plated in T-25 flasks for 3-4 days at 37° C. (no selection antibiotic) prior to use and grown to 80% confluence. Cells were washed twice with PBS (calcium and magnesium free) and detached with a 5-minute treatment at 37° C. with 2-3 mls of Accutase®. Cells were collected, and flask was washed in CHO-SFM II media (Life Technologies Gibco), centrifuged for 2 minutes at ˜110×g and resuspended to obtain a single cell suspension of ˜2-3×10^6 cells/ml.
(§3) The intracellular solution contained the following (in mM): KCl 50, NaCl 10, KF 60, EGTA 20, HEPES 10, adjusted to pH 7.2 with KOH and an osmolarity of 285 mOsmol. Seal enhancer was purchased from Nanion (80 mM NaCl, 3 mM KCl, 10 mM MgCl2, 35 mM CaCl2), 10 mM HEPES, pH7.4, 298 mOsmol. The external solution contained (in mM): NaCl 140, KCl 4, CaCl2) 2, MgCl2 1, HEPES 10, Glucose 5, adjusted to pH7.4 and an osmolarity of 298 mOsmol.
(§4) All compounds were initially tested at 10 uM at a final DMSO concentration of 0.33%. Compounds were dissolved in dimethylsulfoxide (DMSO) at a stock concentration of 30 mM. The compound was further diluted 1:10 to give a stock concentration of 3 mM in DMSO. The final assay solution was diluted 1:300 in External solution to give a final concentration of 10 uM. For the DMSO Control Buffer 30 uL of DMSO was added to 10 mL buffer.
(§5) All electrophysiological recordings were performed at ambient temperature (21-23° C.) using automated patch clamp (Patchliner, Nanion Technologies GmbH) in the whole-cell configuration.
(§6) Cell membrane potentials were held at −80 mV, and currents were evoked by voltage steps (1000 ms duration) from −60 to +60 mV in 10 mV increments. This was performed first with vehicle (0.33% DMSO) and then with 10 uM compound, after a 3-minute incubation period. Data was taken from 4 cells per assay.
(§7) The recordings were analysed and selected using peak current amplitude (>100 pA at the −10 mV voltage step) in the absence of compound to eliminate unsuitable cells from analysis. Peak current amplitude was measured and recorded for each voltage step and data was normalised to the maximum current at +60 mV. The normalised Kv3.x currents following addition of the compound were then compared with the currents recorded prior to compound addition (vehicle control). Positive modulation was determined as % potentiation at the voltage step of −10 mV=[current (cmpd)/current (veh)]*100−100. % potentiation ≥50% was considered acceptable. In addition, voltage shift of the IV curve at V1/2 was measured. V1/2 of ≥−5 mV was also considered acceptable. IV curves were plotted in GraphPad Prism (software version 6.0) and fitted with a Boltzmann equation, where V1/2 is the voltage at half-maximal activation.

hKv3.2 = biological target: T2, hKv3.2 (Homo sapiens, UniProt Q96PR1); assay: Automated patch clamp (Patchliner) whole-cell electrophysiology, Kv3.2; format: cell-based; conditions: 10 μM compound, CHO-K1 cells stably expressing hKv3.2; for activation at 10 µM: % potentiation of peak current at −10 mV voltage step vs vehicle; for Kv3.2 Activity at 10 μM Voltage Shift (mV): voltage shift of the IV curve at V1/2
T2 construct: expressed in transfected cells
T2 sequence (Q96PR1 1-638): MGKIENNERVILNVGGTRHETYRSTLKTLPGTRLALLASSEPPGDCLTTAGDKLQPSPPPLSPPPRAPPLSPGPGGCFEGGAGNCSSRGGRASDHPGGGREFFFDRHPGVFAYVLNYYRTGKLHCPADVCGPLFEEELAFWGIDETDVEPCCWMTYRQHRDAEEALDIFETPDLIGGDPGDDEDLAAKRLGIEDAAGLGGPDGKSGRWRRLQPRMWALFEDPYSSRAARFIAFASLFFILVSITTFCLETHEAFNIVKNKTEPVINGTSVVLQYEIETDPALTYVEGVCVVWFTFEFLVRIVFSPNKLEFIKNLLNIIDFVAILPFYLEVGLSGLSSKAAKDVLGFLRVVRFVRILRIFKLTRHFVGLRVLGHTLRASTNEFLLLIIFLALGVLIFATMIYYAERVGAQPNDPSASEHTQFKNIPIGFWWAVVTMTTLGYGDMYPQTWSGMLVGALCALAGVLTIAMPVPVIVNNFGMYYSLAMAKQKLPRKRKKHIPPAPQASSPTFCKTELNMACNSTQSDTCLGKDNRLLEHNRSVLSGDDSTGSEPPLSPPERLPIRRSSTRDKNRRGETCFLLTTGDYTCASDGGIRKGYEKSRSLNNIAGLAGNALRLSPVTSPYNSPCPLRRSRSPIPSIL
Experimental: as §1, §2, §3, §4, §5, §6, §7

Row | SMILES | Kv3.1 Activity at 10 μM Potentiation (%) (hKv3.1) | Kv3.1 Activity at 10 μM Voltage Shift (mV) (hKv3.1) | activation at 10 µM (hKv3.2) [%] | Kv3.2 Activity at 10 μM Voltage Shift (mV) (hKv3.2)
1 | COc1cc(Oc2cc(N3C(=O)NC(C)(C)C3=O)ccn2)ccc1C [Example 1, 3-[2-(3-methoxy-4-methyl-phenoxy)-4-pyridyl]-5,5-dimethyl-imidazolidine-2,4-dione] | 53 | −2.9 | 21 | −1.23
2 | CC1(C)NC(=O)N(c2ccnc(Oc3ccc4c(c3)CCC4)c2)C1=O [Example 3, 3-(2-indan-5-yloxy-4-pyridyl)-5,5-dimethyl-imidazolidine-2,4-dione] | 58 | −4.65 | 66 | −6.71
3 | COc1cc(Oc2cc(N3C(=O)NC(C)(C)C3=O)ccn2)ccc1C(F)(F)F [Example 4, 3-[2-[3-methoxy-4-(trifluoromethyl)phenoxy]-4-pyridyl]-5,5-dimethyl-imidazolidine-2,4-dione] | 36 | −5.13 | 14 | −4.12
4 | COc1cc(Oc2cc(N3C(=O)NC(C)(C)C3=O)ccn2)ccc1F [Example 6, 3-[2-[3-methoxy-4-fluorophenoxy]-4-pyridyl]-5,5-dimethyl-imidazolidine-2,4-dione] |  |  | 25 | −3.18
5 | COc1cc(Oc2cc(N3C(=O)NC(C)(C)C3=O)ccn2)ccc1Cl [Example 8, 3-[2-(4-chloro-3-methoxy-phenoxy)-4-pyridyl]-5,5-dimethyl-imidazolidine-2,4-dione] | 32 | −4.09 | 22 | −2.39
6 | CC1(C)NC(=O)N(c2ccnc(Oc3ccc4c(c3)OC(F)(F)O4)c2)C1=O [Example 9, 3-[2-[(2,2-difluoro-1,3-benzodioxol-5-yl)oxy]-4-pyridyl]-5,5-dimethyl-imidazolidine-2,4-dione] | 80 | −6.49 | 30 | −3.92
7 | CC[C@@]1(C)NC(=O)N(c2ccnc(Oc3ccc(C)c(OC)c3)c2)C1=O [Example 10, (5R)-5-ethyl-3-[2-(3-methoxy-4-methyl-phenoxy)-4-pyridyl]-5-methyl-imidazolidine-2,4-dione] | 72 | −5.46 | 21 | −2.67
8 | CC[C@@]1(C)NC(=O)N(c2ccnc(Oc3ccc4c(c3)CCC4)c2)C1=O [Example 13, (5R)-5-ethyl-3-(2-indan-5-yloxy-4-pyridyl)-5-methyl-imidazolidine-2,4-dione] | 27 | −3.9 | 48 | −4.48
9 | CC[C@@]1(C)NC(=O)N(c2ccnc(Oc3ccc4c(c3)OC(F)(F)O4)c2)C1=O [Example 16, (5R)-3-[2-[(2,2-difluoro-1,3-benzodioxol-5-yl)oxy]-4-pyridyl]-5-ethyl-5-methyl-imidazolidine-2,4-dione] |  |  | 47 | −3.63
10 | COc1cc(Oc2cc(N3C(=O)NC4(CCCCC4)C3=O)ccn2)ccc1C [Example 24, 3-[2-(3-methoxy-4-methyl-phenoxy)-4-pyridyl]-1,3-diazaspiro[4.5]decane-2,4-dione] |  |  | 42 | −5.52
11 | COc1cc(Oc2cc(N3C(=O)NC4(CCN(C)CC4)C3=O)ccn2)ccc1C [Example 30, 3-[2-(3-methoxy-4-methyl-phenoxy)-4-pyridyl]-8-methyl-1,3,8-triazaspiro[4.5]decane-2,4-dione] | 26 | −0.83 | -4 | 2.06
12 | COc1cc(Oc2cc(N3C(=O)NC4(CCCC4)C3=O)ccn2)ccc1C [Example 33, 3-[2-(3-methoxy-4-methyl-phenoxy)-4-pyridyl]-1,3-diazaspiro[4.4]nonane-2,4-dione] | 64 | −5.74 | 22 | −2.72
13 | CC[C@@]1(C)NC(=O)N(c2cccc(Oc3cccc4c3CCC4)n2)C1=O [Example 69, (5R)-5-ethyl-3-(6-indan-4-yloxy-2-pyridyl)-5-methyl-imidazolidine-2,4-dione] | 73 | −3 |  | 
14 | CC[C@]1(C)NC(=O)N(c2cccc(Oc3ccc(C)c(OC)c3)n2)C1=O [Example 72, (5S)-5-ethyl-3-[6-(3-methoxy-4-methyl-phenoxy)-2-pyridyl]-5-methyl-imidazolidine-2,4-dione] | 33 | −4.25 |  | 
15 | COc1cc(Oc2cccc(N3C(=O)NC(C)(C)C3=O)n2)ccc1C [Example 73, 3-[6-(3-methoxy-4-methyl-phenoxy)-2-pyridyl]-5,5-dimethyl-imidazolidine-2,4-dione] | 26 | −1.61 |  | 
16 | CC(C)c1cc(Oc2cccc(N3C(=O)NC(C)(C)C3=O)n2)ccc1C#N [Example 77, 4-[[6-(4,4-dimethyl-2,5-dioxo-imidazolidin-1-yl)-2-pyridyl]oxy]-2-isopropyl-benzonitrile] | 12 | −0.95 |  | 
17 | CC[C@@]1(C)NC(=O)N(c2ccc(F)c(Oc3ccc(C)c(OC)c3)n2)C1=O [Example 89, (5R)-5-ethyl-3-[5-fluoro-6-(3-methoxy-4-methyl-phenoxy)-2-pyridyl]-5-methyl-imidazolidine-2,4-dione] |  |  | 28 | −2.58
